Experimental data as given in publication PMC7948418, “Genetic and biased agonist-mediated reductions in β-arrestin recruitment prolong cAMP signaling at glucagon family receptors” (The Journal of Biological Chemistry, 2020).
Square brackets hold non-standard residues; d marks the D form. Ends that are not written are not given here.

T1: GIPR (Homo sapiens, UniProt P48546)
T1 sequence (P48546 22-466): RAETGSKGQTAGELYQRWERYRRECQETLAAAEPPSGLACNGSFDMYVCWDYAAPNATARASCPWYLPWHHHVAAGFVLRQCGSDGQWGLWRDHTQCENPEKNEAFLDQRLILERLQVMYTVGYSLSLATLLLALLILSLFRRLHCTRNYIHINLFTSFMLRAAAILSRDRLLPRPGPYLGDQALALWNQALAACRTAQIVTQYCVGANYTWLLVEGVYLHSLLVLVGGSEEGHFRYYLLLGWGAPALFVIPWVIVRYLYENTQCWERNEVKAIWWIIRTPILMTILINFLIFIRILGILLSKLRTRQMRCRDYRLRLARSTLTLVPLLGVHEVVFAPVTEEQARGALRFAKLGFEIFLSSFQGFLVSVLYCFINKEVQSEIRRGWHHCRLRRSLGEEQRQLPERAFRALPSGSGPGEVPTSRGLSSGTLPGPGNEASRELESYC

T2: GIPR-SmBiT (UniProt P48546)
T2 sequence: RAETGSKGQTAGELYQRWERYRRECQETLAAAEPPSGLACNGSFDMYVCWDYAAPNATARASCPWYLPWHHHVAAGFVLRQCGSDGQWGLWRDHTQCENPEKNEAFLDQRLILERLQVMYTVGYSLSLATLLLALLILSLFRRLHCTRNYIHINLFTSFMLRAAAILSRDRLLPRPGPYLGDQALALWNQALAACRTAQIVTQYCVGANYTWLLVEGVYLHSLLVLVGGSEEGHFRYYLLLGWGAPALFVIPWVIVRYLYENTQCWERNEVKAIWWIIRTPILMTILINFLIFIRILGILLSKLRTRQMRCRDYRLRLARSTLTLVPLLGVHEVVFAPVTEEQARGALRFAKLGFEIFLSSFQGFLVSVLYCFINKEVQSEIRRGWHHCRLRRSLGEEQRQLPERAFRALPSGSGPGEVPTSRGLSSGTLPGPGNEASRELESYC


Legend:
[1] = target: T3, GLP-1R (Homo sapiens, UniProt P43220); assay: cAMP response (HTRF) in PathHunter CHO-GLP-1R cells; assay type: cell-based; settings: read-out: cAMP Emax (% GLP-1)
[2] = target: T3, GLP-1R; assay: β-arrestin-2 recruitment by enzyme fragment complementation (PathHunter) CHO-GLP-1R; assay type: cell-based; settings: read-out: βarr2 Emax (% GLP-1)
[3] = target: T1, GIPR; assay: cAMP response (HTRF) in PathHunter CHO-GIPR cells; assay type: cell-based; settings: for Emax: read-out: cAMP Emax (% GIP)
[4] = target: T1, GIPR; assay: β-arrestin-2 recruitment by enzyme fragment complementation (PathHunter) CHO-GIPR; assay type: cell-based; settings: for Emax: read-out: βarr2 Emax (% GIP)
[5] = target: T2, GIPR-SmBiT; assay: split reporter (BiFC, NanoBiT); NanoBiT complementation in HEK293T cells co-transfected with receptor-SmBiT and LgBiT-tagged effector; furimazine; 37 °C; baseline 5 min, then 100 nM cognate agonist (GLP-1, GIP or GCG) or vehicle, luminescence over 30 min, normalised to baseline and vehicle
[6] = target: GLP-1R-SmBiT (UniProt P43220); assay: as above
[7] = target: T2, GIPR-SmBiT
[8] = target: T2, GIPR-SmBiT; remark: listed apart in the source

T3 sequence (P43220 24-463): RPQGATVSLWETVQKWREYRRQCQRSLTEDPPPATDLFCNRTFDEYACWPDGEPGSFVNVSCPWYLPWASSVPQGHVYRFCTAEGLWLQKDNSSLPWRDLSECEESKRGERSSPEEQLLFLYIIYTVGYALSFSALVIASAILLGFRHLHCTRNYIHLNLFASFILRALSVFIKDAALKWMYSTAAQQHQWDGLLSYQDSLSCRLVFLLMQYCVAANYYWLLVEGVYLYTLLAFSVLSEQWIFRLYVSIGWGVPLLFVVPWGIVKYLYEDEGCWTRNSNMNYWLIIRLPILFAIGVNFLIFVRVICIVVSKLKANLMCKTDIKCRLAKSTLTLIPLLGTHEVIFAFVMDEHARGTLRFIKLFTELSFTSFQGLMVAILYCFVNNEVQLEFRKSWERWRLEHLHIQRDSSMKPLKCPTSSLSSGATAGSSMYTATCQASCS
GLP-1R-SmBiT, sequence (P43220 24-463): as above

Row | Molecule | EC50 [3] | Emax [3] | EC50 [4] | Emax [4] | other results
1 | CC[C@H](C)[C@H](NC(=O)[C@H](Cc1ccccc1)NC(=O)[C@H](CCC(=O)O)NC(=O)[C@H](CCCCN)NC(=O)[C@H](C)NC(=O)[C@H](C)NC(=O)[C@H](CCC(N)=O)NC(=O)CNC(=O)[C@H](CCC(=O)O)NC(=O)[C@H](CC(C)C)NC(=O)[C@H](Cc1ccc(O)cc1)NC(=O)[C@H](CO)NC(=O)[C@H](CO)NC(=O)[C@@H](NC(=O)[C@H](CC(=O)O)NC(=O)[C@H](CO)NC(=O)[C@@H](NC(=O)[C@H](Cc1ccccc1)NC(=O)[C@@H](NC(=O)CNC(=O)[C@H](CCC(=O)O)NC(=O)CNC(=O)[C@@H](N)Cc1c[nH]cn1)[C@@H](C)O)[C@@H](C)O)C(C)C)C(=O)N[C@@H](C)C(=O)N[C@@H](Cc1c[nH]c2ccccc12)C(=O)N[C@@H](CC(C)C)C(=O)N[C@H](C(=O)N[C@@H](CCCCN)C(=O)NCC(=O)N[C@@H](CCCNC(=N)N)C(N)=O)C(C)C [GLP-1-Gly2] | – | – | – | – | Emax [1]: 95 ± 4%; Emax [2]: 93 ± 3%
2 | CC[C@H](C)[C@H](NC(=O)[C@H](Cc1ccccc1)NC(=O)[C@H](CCC(=O)O)NC(=O)[C@H](CCCCN)NC(=O)[C@H](C)NC(=O)[C@H](C)NC(=O)[C@H](CCC(N)=O)NC(=O)CNC(=O)[C@H](CCC(=O)O)NC(=O)[C@H](CC(C)C)NC(=O)[C@H](Cc1ccc(O)cc1)NC(=O)[C@H](CO)NC(=O)[C@H](CO)NC(=O)[C@@H](NC(=O)[C@H](CC(=O)O)NC(=O)[C@H](CO)NC(=O)[C@@H](NC(=O)[C@H](Cc1ccccc1)NC(=O)[C@@H](NC(=O)CNC(=O)[C@@H](CCC(N)=O)NC(=O)[C@H](C)NC(=O)[C@@H](N)Cc1c[nH]cn1)[C@@H](C)O)[C@@H](C)O)C(C)C)C(=O)N[C@@H](C)C(=O)N[C@@H](Cc1c[nH]c2ccccc12)C(=O)N[C@@H](CC(C)C)C(=O)N[C@H](C(=O)N[C@@H](CCCCN)C(=O)NCC(=O)N[C@@H](CCCNC(=N)N)C(N)=O)C(C)C [GLP-1-dGln3] | – | – | – | – | Emax ([1]; 30-min stimulation, 37 °C, no phosphodiesterase inhibitors, 4-parameter fit, mean ± SEM, n = 5): 106 ± 5%; Emax ([2]; 30 min at 37 °C, 4-parameter fit, mean ± SEM, n = 5): 60 ± 4%
3 | FAEGTFISDYSIAMDKIHQQDFVNWLLAQKGKKNDWKHNITQ [GIP-Phe1] | 2 nM | 99 ± 3% | 1000 nM | 65 ± 3% | –
4 | LgBiT-mini-Gs | – | – | – | – | t1/2 of ligand-induced mini-Gs recruitment [5]: 7.1 min; t1/2 of ligand-induced mini-Gs recruitment [6]: 1.5 min
5 | YA[dQ]GTFISDYSIAMDKIHQQDFVNWLLAQKGKKNDWKHNITQ [GIP-dGln3] | 25.1 nM | 110 ± 4% | 316 nM | 23 ± 1% | –
6 | YGEGTFISDYSIAMDKIHQQDFVNWLLAQKGKKNDWKHNITQ [GIP-Gly2] | 0.794 nM | 100 ± 4% | 316 nM | 66 ± 7% | –
7 | YAEGTFISDYSIAMDKIHQQDFVNWLLAQKGKKNDWKHNITQ [GIP(1–42)] | – | – | – | – | cAMP (HTRF), Log EC50, 10 min stimulation, wildtype HEK293 cells transiently transfected with SNAP-GIPR [7]: -9.4 Log EC50 (M); cAMP (HTRF), Log EC50, 10 min stimulation, β-arrestin-1/2 knockout HEK293 cells transiently transfected with SNAP-GIPR [7]: -9.1 Log EC50 (M); cAMP (HTRF), Log EC50, 60 min stimulation, wildtype HEK293 cells transiently transfected with SNAP-GIPR [7]: -9.6 Log EC50 (M); cAMP (HTRF), Log EC50, 60 min stimulation, β-arrestin-1/2 knockout HEK293 cells transiently transfected with SNAP-GIPR [7]: -9.7 Log EC50 (M); cytoplasmic PKA activation (AKAR4-NES FRET, AUC), Log EC50, wildtype HEK293 cells co-transfected with SNAP-GIPR [8]: -10.1 Log EC50 (M); cytoplasmic PKA activation (AKAR4-NES FRET, AUC), Log EC50, β-arrestin-1/2 knockout HEK293 cells co-transfected with SNAP-GIPR [8]: -10.9 Log EC50 (M)
